# System: isolated rabbit thoracic aorta preparations
# Experiment: Vessel relaxation in isolated rabbit thoracic aorta preparations
# Details: Oryctolagus cuniculus; in vitro, rabbit aortic rings precontracted with noradrenaline, functional endothelium present
# Description: The ability of the compounds to induce vasorelaxation was tested in vitro in isolated rabbit thoracic aorta preparations (Wanstall J. C. et al., Br. J. Pharmacol., 134:463-472, 2001). Male New Zealand rabbits were anaesthetized with thiopental-Na (50 mg/kg, iv), sacrificed by exsanguinations and then the thorax was opened and the aorta dissected. Aortic ring preparations (4 mm in length) were set up in physiological salt solution (PSS) at 37° C. in small organ chambers (5 ml). The composition of PSS was (mM): NaCl 130, NaHCO3 14.9, KH2PO4 1.2, MgSO4 1.2, HEPES 10, CaCl2, ascorbic acid […] and glucose 1.1 (95% O2/5% CO2; pH 7.4). Each ring was mounted under 2 g passive tension. Isometric tension was recorded with a Grass transducer (Grass FT03) attached to a BIOPAC MP150 System. Preparations were allowed to equilibrate for 1 h, and then contracted submaximally with noradrenaline (NA, 1 μM) and, when the contraction was stable, acetylcholine (ACh, 10 μM) was added. A relaxant response to ACh indicated the presence of a functional endothelium. […] When a stable precontraction was reached, a cumulative concentration-response curve to either of the vasorelaxant agents was obtained in the presence of a functional endothelium. Each arterial ring was exposed to only one combination of inhibitor and vasorelaxant. […]
# Examples 3 and 5 were evaluated for vessel relaxation.
row,SMILES,EC50 [µM]
1,"CCCCc1nc(Cl)c(C(=O)OCO/N=[N+](\[O-])N2CCC[C@H]2C(=O)O)n1Cc1ccc(-c2ccccc2-c2nnn[nH]2)cc1 [Example 5, O^2-({[(2-butyl-4-chloro-1-{[2′-(1H-tetrazol-5-yl)biphenyl-4-yl]methyl}-1H-imidazol-5-yl)carbonyl]oxy}methyl)1-[2S-(carboxylato)pyrrolidin-1-yl]diazen-1-ium-1,2-diolate]",18.7
2,"CCCCc1nc(Cl)c(C(=O)OCO/N=[N+](\[O-])N2CCCCC2CO)n1Cc1ccc(-c2ccccc2-c2nnn[nH]2)cc1 (centres unmarked) [Example 3, O^2-({[(2-butyl-4-chloro-1-{[2′-(1H-tetrazol-5-yl)biphenyl-4-yl]methyl}-1H-imidazol-5-yl)carbonyl]oxy}methyl)1-[2-(hydroxymethyl)piperidin-1-yl]diazen-1-ium-1,2-diolate]",5.3
